Data taken from article PMC9331716, “Nucleoside Transport and Nucleobase Uptake Null Mutants in Leishmania mexicana for the Routine Expression and Characterization of Purine and Pyrimidine Transporters” (International Journal of Molecular Sciences, 2022).
Several values for one entry are separate records, joined by “and”; a condition that tells them apart may be missing. Equal entries are not always repeated.

What was measured:
Lmex5FURes cells = test: Radiolabel transport assay in Lmex5FURes cells; assay type: cell-based, Leishmania mexicana
Experimental: (§1) Transport assays were performed exactly as described previously. Briefly, 10^7 cells in 100 μL of assay buffer (AB) were mixed with an equal volume of radiolabel at 2× concentration for a preset time. The incubation was terminated by the addition of 700 μL of “Stop solution”, being ice-cold 1 mM solution of unlabelled permeant, followed by immediate centrifugation through an oil layer in a microfuge at 13,000 rpm. This causes the cell pellet to reside under the oil layer and isolated from residual radiolabel in the assay buffer. The tubes were flash-frozen in liquid nitrogen and the bottom tip, containing the cell pellet, cut off and collected in a scintillation tube. Cells were solubilized by gentle shaking after addition of a 2% SDS solution, before the addition of scintillation fluid (Scintilogic U, Lablogic, Sheffield, UK); the tubes were left to stand in the dark overnight before counting in a 300SL Hidex Scintillation Counter (Lablogic). Linear and nonlinear regression analyses were carried out using GraphPad Prism versions 8.0 and higher. […] However, all parameters, including Km, Vmax, Ki, given are the average of at least three separate, independent determinations; errors given are standard errors, unless otherwise specified.

[1] = biological target: Aspergillus nidulans uracil transporter FurD (Aspergillus nidulans, UniProt A6N844); test: Transport assay, FurD expressed in Lmex5FURes; assay type: cell-based
Experimental: as §1

FurD = biological target: FurD; parameters: method as in PMID 17520477; details: FurD in A. nidulans, cited from earlier work
TvagENT3 [2] = biological target: T1, TvagENT3 (Trichomonas vaginalis, UniProt A2E5Q3); details: TvagENT3 expressed in T. brucei; cited from earlier work
LmexNT1.1 = test: Transport assay, LmexNT1.1 expressed in SUPKO; assay type: cell-based, Leishmania mexicana; details: SUPKO expressing LmexNT1.1, 50 nM radiolabel
Experimental: as §1

LmexNT1.2 = test: Transport assay, LmexNT1.2 expressed in SUPKO; assay type: cell-based, Leishmania mexicana; details: SUPKO expressing LmexNT1.2, 50 nM radiolabel
Experimental: as §1

[3] = system: L. mexicana SUPKO (ΔNT1.1/1.2/2) cells; test: Radiolabel transport assay in SUPKO cells; assay type: cell-based, Leishmania mexicana; details: for rate of uptake: SUPKO cells
Experimental: as §1

[4] = system: L. mexicana NT3-KO promastigotes; test: Radiolabel transport assay in NT3-KO cells; assay type: cell-based, Leishmania mexicana
Experimental: as §1

TcrNB2 [5] = biological target: T2, TcrNB2 (Trypanosoma cruzi, UniProt Q4DHG0); test: Transport assay, TcrNB2 expressed in NT1-KO; assay type: cell-based; details: 50 nM [^3H]-adenosine, 100 nM [^3H]-hypoxanthine, 100 nM [^3H]-uracil; data not shown
T2 sequence (Q4DHG0 1-440): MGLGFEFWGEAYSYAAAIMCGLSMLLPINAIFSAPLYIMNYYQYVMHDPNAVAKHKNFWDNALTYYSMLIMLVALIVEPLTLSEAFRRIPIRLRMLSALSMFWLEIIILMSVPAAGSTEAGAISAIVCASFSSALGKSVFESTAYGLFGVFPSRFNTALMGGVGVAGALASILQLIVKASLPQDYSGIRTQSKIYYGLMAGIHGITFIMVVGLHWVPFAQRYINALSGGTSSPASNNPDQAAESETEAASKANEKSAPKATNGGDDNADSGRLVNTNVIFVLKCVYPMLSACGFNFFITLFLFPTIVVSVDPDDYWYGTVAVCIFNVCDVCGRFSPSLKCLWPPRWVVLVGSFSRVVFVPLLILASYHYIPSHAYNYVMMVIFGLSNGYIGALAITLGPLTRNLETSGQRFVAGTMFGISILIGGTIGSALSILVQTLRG
Experimental: as §1

TcrNB2 [6] = biological target: T2, TcrNB2; test: Transport assay, TcrNB2 expressed in LmexNT3-KO; assay type: cell-based; details: 1 mM inhibitor, TcrNB2 in NT3-KO; read-out: inhibition of adenine uptake
Experimental: as §1

L. mexicana cas9 cells [7] = test: Radiolabel transport assay in cas9 cells; assay type: cell-based, Leishmania mexicana; details: for rate of uptake: cas9 cells
Experimental: as §1

L. mexicana NT1-KO cells = test: Radiolabel transport assay in NT1-KO cells; assay type: cell-based, Leishmania mexicana
Experimental: as §1

TvagENT3 [8] = biological target: T1, TvagENT3; test: cell-based
Experimental: as §1

L. mexicana cas9 cells [9] = test: Growth curve of cas9 cells with selection agents; assay type: cell-based, Leishmania mexicana; details: 5 μM tubercidin, 5 μg/mL blasticidin, 20 µg/mL puromycin, 1 µM formycin B
Experimental: The growth rates of the L. mexicana promastigotes were determined in the standard HOMEM medium supplemented with 10% FBS, in 12-well plates, in triplicate. After every 24 h, cells were counted in a sample of the culture, using either a Neubauer hemocytometer chamber (Hawksley, Birmingham, UK) or by a coulter particle counter and size analyzer (Beckman, Brea, CA, USA) to count the cells in triplicate. An average of the triplicate readings was taken and plotted using GraphPad Prism 8 software to obtain the growth curves.

[10] = system: L. mexicana cas9 promastigotes; test: Resazurin (Alamar blue) drug sensitivity assay, cas9 control line; assay type: cell-based; details: Leishmania mexicana, n = 3
Experimental: (§2) The assay is based on the reduction of the dye resazurin (Alamar blue) by live but not dead cells and was performed with various strains of Leishmania mexicana promastigotes, exactly as described. Briefly, doubling dilutions starting at 100 µM were set up over 2 rows of a 96-well plate and 2 × 10^5 cells were added to each well, followed by incubation at 25 °C. After 72 h, 20 µL of 125 µg/mL resazurin solution was added and the plates incubated for a further 24 h. Fluorescence was determined in a FLUOstar OPTIMA plate reader (BMG Labtech, Ortenberg, Germany), reading the fluorescence intensity in arbitrary units (A.U.) at 544 nm wavelength for excitation and 620 nm wavelength for emission. The EC50 values and fluorescence data were determined and plotted to a sigmoid curve with variable slope, using the GraphPad Prism 8 software package. All EC50 values were determined on at least three independent occasions and are presented as average ± SEM.

[11] = system: L. mexicana NT2-KO promastigotes; test: Resazurin (Alamar blue) drug sensitivity assay, NT2-KO line; assay type: cell-based; details: Leishmania mexicana, NT2-KO strain, n = 3
Experimental: as §2

L. major U1 transporter = biological target: L. major U1 transporter; parameters: method as in PMID 15796010; details: unit printed only with the uridine value; cited from earlier work
[12] = substrate: O=c1cc[nH]c(=O)[nH]1; test: Transport assay, FurD expressed in Lmex5FURes; assay type: cell-based, Aspergillus nidulans; details: other: FurD in Lmex5FURes, 100 nM [^3H]-uracil over 10 s
Experimental: as §1

[13] = 50 nM radiolabel, listed as [^3H]-adenosine

T1 sequence (A2E5Q3 entry or part of it): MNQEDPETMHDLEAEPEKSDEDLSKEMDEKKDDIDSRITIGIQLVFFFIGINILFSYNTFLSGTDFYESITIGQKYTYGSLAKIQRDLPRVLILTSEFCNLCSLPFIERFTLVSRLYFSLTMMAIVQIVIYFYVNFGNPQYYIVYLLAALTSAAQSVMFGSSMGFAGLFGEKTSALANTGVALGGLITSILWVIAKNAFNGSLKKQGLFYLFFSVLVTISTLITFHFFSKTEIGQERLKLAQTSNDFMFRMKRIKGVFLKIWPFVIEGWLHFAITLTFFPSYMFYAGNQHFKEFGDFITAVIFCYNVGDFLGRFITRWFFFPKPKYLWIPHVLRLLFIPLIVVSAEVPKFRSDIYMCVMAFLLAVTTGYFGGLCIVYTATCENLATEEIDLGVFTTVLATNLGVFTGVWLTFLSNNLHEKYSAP

O=c1[nH]cc(F)c(=O)[nH]1 [5FU, 5-fluorouracil]
uptake in Lmex5FURes control (Lmex5FURes cells; 100 nM [^3H]-5FU, p = 0.27): not significantly different from zero | Ki ([1]; FurD in Lmex5FURes, inhibition of [^3H]-uracil uptake): 700 ± 250 nM | Ki (FurD; unit printed only with the uracil Km): 460 nM

Nc1ncnc2c1ncn2[C@@H]1O[C@H](CO)[C@@H](O)[C@H]1O [adenosine]
Ki (TvagENT3 [2]): 870 ± 150 nM | rate of uptake (LmexNT1.1): 0.27 ± 0.006 pmol(10^7 cells)^−1s^−1 | rate of uptake (LmexNT1.2): 0.36 ± 0.03 pmol(10^7 cells)^−1s^−1 | uptake reduced in SUPKO compared to cas9 ([3]; 50 nM radiolabel): 99% | rate of uptake ([3]; 50 nM radiolabel): 0.00063 pmol(10^7 cells)^−1s^−1 | rate of uptake [3, 13]: 0.0006 ± 0.00007 pmol(10^7 cells)^−1s^−1 | rate of uptake ([3]; 100 nM radiolabel): 0.00046 ± 0.00002 pmol(10^7 cells)^−1s^−1 | rate of uptake ([4]; NT3-KO cells, 100 nM radiolabel): 0.55 ± 0.05 pmol(10^7 cells)^−1s^−1 | upregulation of uptake rate in NT3-KO relative to cas9 ([4]; adenosine and inosine at 100 nM, separate experiments listed singly, listed as [^3H]-adenosine): 4.0 fold and 6.4 fold | effect of TcrNB2 expression on uptake in NT1-KO cells (TcrNB2 [5]): did not increase | inhibition at 1000 µM (TcrNB2 [6]): 15.5 ± 11.7% | inhibition of [^3H]-thymidine uptake (L. mexicana cas9 cells [7]; 0.1 µM [^3H]-thymidine, adenosine concentration and cell line not explicitly printed): fully inhibited | rate of uptake (L. mexicana cas9 cells [7]; [13]): 0.082 ± 0.004 pmol(10^7 cells)^−1s^−1 and 0.081 ± 0.006 pmol(10^7 cells)^−1s^−1 | rate of uptake (L. mexicana cas9 cells [7]; 100 nM radiolabel, listed as [^3H]-adenosine): 0.082 ± 0.004 pmol(10^7 cells)^−1s^−1 and 0.086 ± 0.009 pmol(10^7 cells)^−1s^−1 | rate of uptake lower in NT1-KO than in cas9 (L. mexicana NT1-KO cells; 50 nM radiolabel): 99.4% | rate of uptake (L. mexicana NT1-KO cells; NT1-KO cells, 50 nM radiolabel): 0.00048 ± 0.00007 pmol(10^7 cells)^−1s^−1 | uptake lower in SUPKO than in SUPKO expressing TvagENT3 (TvagENT3 [8]; 50 nM radiolabel): 94.6% | rate of uptake (TvagENT3 [8]; SUPKO expressing TvagENT3, 50 nM radiolabel): 0.0080 ± 0.0004 pmol(10^7 cells)^−1s^−1

O=c1[nH]cnc2c([C@@H]3O[C@H](CO)[C@@H](O)[C@H]3O)n[nH]c12 [formycin B]
sensitivity of cas9 cells in growth curve (L. mexicana cas9 cells [9]): confirmed | EC50 [10]: 18 ± 2 nM | EC50 [11]: 63500 ± 1900 nM

O=c1cc[nH]c(=O)[nH]1 [uracil]
uptake in SUPKO compared with cas9 ([3]; 100 nM [^3H]-uracil, n = 3, p = 0.81): identical | rate of uptake ([3]; 100 nM radiolabel): 0.00032 ± 0.00003 pmol(10^7 cells)^−1s^−1 | effect of TcrNB2 expression on uptake in NT1-KO cells (TcrNB2 [5]): did not increase | Ki (L. major U1 transporter): 320 ± 70 nM | rate of uptake (Lmex5FURes cells; Lmex5FURes cells, 100 nM radiolabel): 0.00057 ± 0.0001 pmol(10^7 cells)^−1s^−1 | rate of uptake (L. mexicana cas9 cells [7]; 100 nM radiolabel): 0.00031 ± 0.00002 pmol(10^7 cells)^−1s^−1 | uptake in NT1-KO compared with cas9 (L. mexicana NT1-KO cells; 100 nM [^3H]-uracil): identical | rate of uptake ([1]; Lmex5FURes expressing FurD clone 2, 100 nM radiolabel): 0.29 ± 0.02 pmol(10^7 cells)^−1s^−1 | Km (FurD): 0.45 µM

B1: Aspergillus nidulans uracil transporter FurD (Aspergillus nidulans) (protein)
chain: MRFGRFHLRVEQSRSAFASGNARWTNLDLDPVPRAGRVWGPLSFISYWISDAFNAATWQFASSIIAVGLSWRESLGIVALSFFIISFVIAANGAVGSIYHIPFPVIARASWGFWGSYIAIISRVILAIFWFAIQNVNGANAVKAMISAIWPSFLSMKNTIPQDQGIETNTMIAYMIFWIVQMPFLCIHPNKVRWLFATKSVLVPAAWIAILIWAFVAEGKGALFEQRATVSGSQYSWVWLASMTSVLGNYATLSVNQSDFSRYSRVSAKWQLLYIPLLPVIFTFISFIGIAASSAGWTRYNTPSIPWDPIELISHWDSRAARFFGAFSFALASLGVNISANSISAANDLMALFPTYVDLRRGQIICGVISWALVPWKILESASNFLNFMSAYAIFLGPIAAIMLWDFWLIKNRKYDTVALYQPDTPIYRFNAWLVNWRAVVAFLVGVIPSLPGLSNSVNSRIQVGVGIHPYQFGWLLGFVGTSLVYIALSYGFPVREALIERAVLSDEVYEGREVEGEGVEEGREELGESKREGVGKEKGFAVY
Km [12]: 0.89 ± 0.20 µM
